Assay results as given in US20060122279A1, “Hydrophobic polyamine amides as potent lipopolysaccharide sequestrants” (priority 2004, published 2006).
Several values for one entry are separate records, joined by “and”; a condition that tells them apart may be missing. Equal values may be shown once. Read-outs that look alike come from different tables or passages of the source. Marks after values point to notes of the source that are not given here.

How the values were obtained:
[1] = type: binding, E. coli 0111:B4; settings: E. coli 0111:B4 LPS; Tables 1-3; read-out: ED50 (half-maximal effective displacement of BC probe from LPS)
Description: Polymyxin B (PMB), a peptide antibiotic known to bind and neutralize LPS^47 serves as the positive control and reference compound for every plate, enabling the quantitative assessment of repeatability and reproducibility (CV and Z′ factors) for the assay. Robotic liquid handling is performed on a Precision 2000 automated microplate pipetting system, programmed using the Precision Power software, Bio-Tek Instruments Inc., VT, USA. Stock solutions of LPS (5 mg/ml; E. coli 0111:B4; procured from Sigma) and BC (500 μM) are prepared in Tris buffer (pH 7.4, 50 mM). 1 ml each of the LPS and BC stocks are mixed and diluted in Tris buffer to a final volume of 100 ml, yielding final concentrations of 50 μg/ml of LPS and 5 μM BC. 40 μl of this BC:LPS mixture is added to each well of the plate using the Precision 2000. Fluorescence measurements are made at 25° C. on a Fluoromax-3 with Micromax Microwell 384-well plate reader, using DataMax software, Jobin Yvon Inc., N.J. The BC excitation wavelength is 580 nm, emission spectra are taken at 620 nm with both emission and excitation monochromator bandpasses set at 5 nm.

[2] = tested on: murine macrophage J774.A1 cells; assay: Nitric oxide (NO) inhibition in LPS-stimulated J774.A1 cells (Griess); type: cell-based
Description: Murine monocytes (J774.A1 cells) produce measurable quantities of NO on exposure to LPS and provide a model for the rapid assessment of compounds to neutralize LPS activity. […] In all experiments, Polymyxin B (PMB), a decapeptide antibiotic, known to bind and neutralize LPS,^29;47;48 is used as a reference compound.
Nitric oxide production is measured as total nitrite in murine macrophage J774.A1 cells using the Griess reagent system.^53;54 Murine macrophage J774.A1 cells are grown in RPMI-1640 cell-culture medium containing L-glutamine and sodium bicarbonate and supplemented with 10% fetal bovine serum, 1% L-glutamine-penicillin-streptomycin solution, and 200 μg/ml L-arginine at 37° C. in a 5% CO2 atmosphere. Cells are plated at ˜2×10^6/ml in a volume of 40 μl/well, in 384 well, flat-bottomed, cell culture treated microtiter plates until confluency and subsequently stimulated with 100 ng/ml lipopolysaccharide (LPS). Concurrent to LPS stimulation, serially diluted concentrations of test compounds are added to the cell medium and left to incubate overnight for 16 h. Polymyxin B is used as reference compound in each plate. Positive—(LPS stimulation only) and negative-controls (J774.A1 medium only) are included in each experiment. Nitrite concentrations are measured adding 30 μl of supernatant to equal volumes of Griess reagents (50 μl/well; 0.1% NED solution in ddH2O and 1% sulfanilamide, 5% phosphoric acid solution in ddH2O) and incubating for 15 minutes at room temperature in the dark. Absorbance at 535 nm is measured using a Molecular Devices Spectramax M2 multifunction plate reader (Sunnyvale, Calif.). Nitrite concentrations are interpolated from standard curves obtained from serially diluted sodium nitrite standards.

CF-1 mice = assay: Mouse lethality model of endotoxic shock (D-galactosamine sensitized, LPS challenge); type: in vivo; settings: for time window of protection, in words: 200 ng/mouse LPS
Description: Based on the results of the displacement assays, NO and cytokine inhibition data, 8 is elected for detailed evaluation in animal experiments. […] In all experiments reported herein, a supralethal dose of 200 ng per mouse, in a final volume of 0.2 ml saline is used. The dose-response of protection afforded by 8 is depicted in Table 4. Previous studies with labile spermine conjugates such as DOSPER^37 had shown the window of protection to be very short, a 15 minute window of protection. Compound 8, with its greater anticipated hydrolytic stability, is examined to see if it affords a more extended time-window of protection. 200 μg of 8 in a final volume of 0.2 ml injections are administered intraperitoneally at times of −6, −4, −2, 0, +1, and +2 relative to time-zero, the time at which all mice are challenged with 200 ng/mouse LPS injections. […] Testing to see if in this treatment regime, which is characterized by a slow, gradual systemic absorption from the site of injection, a longer duration of protection would be observed is carried out. Lethality is once again assessed 24 hours following the final injection.
Female, outbred, 9- to 11-week-old CF-1 mice (Charles River, Wilmington, Mass.) weighing 22-28 g are used as described elsewhere.^37 Upon arrival, the mice are allowed to acclimatize for a week prior to experimentation, housed 5 per cage in a controlled environment at the AALAC-accredited University of Kansas Animal Care Facility, and allowed access to mouse chow and water ad libitum. […] In experiments designed to test dose-response effects of the acyl-spermines in affording protection against LPS-induced lethality, mice receive graded doses of compound diluted in saline, i.p., in one flank, immediately before a supralethal (200 ng) LPS challenge, which is administered as a separate i.p. injection into the other flank. In experiments in which the temporal window of protection is to be examined, a fixed dose of 200 μg/mouse of compound is administered at various times, before, or after supralethal (200 ng/mouse) LPS challenge. Lethality is determined at 24 h post LPS challenge.

For `CCCCCCCCCCCCCCCCCC(=O)NCCCCC(N)C(=O)NCCCNCCCCNCCCN` [Compound 8, D-Lys-ε-(stearoyl)-N^1-spermine], the EC50 [1] was 8.8 µM, the IC50 ([2]; J774.A1 cells, 100 ng/ml LPS, 16 h, Tables 1-3, read-out: NO IC50) was 1.98 µM and the IC50 ([2]; Table 7 focused library, NO inhibition, read-out: NO) was 10.3 µM. For the same compound, the “prevention of LPS-induced NO release from J774.A1 macrophages” value ([2]; in words) was “high activity”, the “No. of live mice/total no. of mice tested” value (CF-1 mice; 10 μg/mouse i.p., immediately before 200 ng/mouse LPS, lethality at 24 h) was 0/5 and the “No. of live mice/total no. of mice tested” value (CF-1 mice; 50 μg/mouse i.p., immediately before 200 ng/mouse LPS, lethality at 24 h) was 1/5. The “No. of live mice/total no. of mice tested” value (CF-1 mice; 100 μg/mouse i.p., immediately before 200 ng/mouse LPS, lethality at 24 h) was 4/5*, the “time window of protection, in words” value (CF-1 mice; 200 μg i.p.) was “significant protection up to 6 h prior to LPS challenge” and the “No. of live mice/total number of mice tested” value (CF-1 mice; 200 μg intraperitoneally at 0 h relative to LPS (200 ng/mouse)) was 4/5*. For the same compound, the “No. of live mice/total number of mice tested” value (CF-1 mice; 200 μg intraperitoneally at +1 h relative to LPS (200 ng/mouse)) was 0/5*, the “No. of live mice/total number of mice tested” value (CF-1 mice; 200 μg intraperitoneally at +2 h relative to LPS (200 ng/mouse)) was 2/5 and the “No. of live mice/total number of mice tested” value (CF-1 mice; 200 μg intraperitoneally at −2 h relative to LPS (200 ng/mouse)) was 4/5*. The “No. of live mice/total number of mice tested” value (CF-1 mice; 200 μg intraperitoneally at −4 h relative to LPS (200 ng/mouse)) was 4/5*, the “No. of live mice/total number of mice tested” value (CF-1 mice; 200 μg intraperitoneally at −6 h relative to LPS (200 ng/mouse)) was 3/5 and the “time window of protection, in words” value (CF-1 mice; 200 μg subcutaneous) was “significant protection even when the compound is administered 16 h ahead of LPS challenge”. For the same compound, the “No. of live mice/total no. of mice tested” value (CF-1 mice; 200 μg subcutaneously at 0 h relative to LPS (200 ng/mouse)) was 1/5, the “No. of live mice/total no. of mice tested” value (CF-1 mice; 200 μg subcutaneously at +2 h relative to LPS (200 ng/mouse)) was 1/5 and the “No. of live mice/total no. of mice tested” value (CF-1 mice; 200 μg subcutaneously at −4 h relative to LPS (200 ng/mouse)) was 5/5*. The “No. of live mice/total no. of mice tested” value (CF-1 mice; 200 μg subcutaneously at −8 h relative to LPS (200 ng/mouse)) was 3 of the 5 and 3/5, the “No. of live mice/total no. of mice tested” value (CF-1 mice; 200 μg subcutaneously at −12 h relative to LPS (200 ng/mouse)) was 3 of the 5 and 3/5 and the “No. of live mice/total no. of mice tested” value (CF-1 mice; 200 μg subcutaneously at −16 h relative to LPS (200 ng/mouse)) was 3 of the 5 and 3/5. For the same compound, the “No. of live mice/total no. of mice tested” value (CF-1 mice; 200 μg subcutaneously at −24 h relative to LPS (200 ng/mouse)) was “Two of the 5 and 2/5” and the “No. of live mice/total no. of mice tested” value (CF-1 mice; 200 μg/mouse i.p., immediately before 200 ng/mouse LPS, lethality at 24 h) was 5/5*.
